Results as given in patent publication US20070261950A1, “IONIZED WATER AND METHOD OF PRODUCING SAME” (priority 2006, published 2007).

Legend:
[1] = tested on: RAW264.7 cells; assay: Intracellular ROS induced by LPS in RAW264.7 cells (C400 fluorescence, confocal microscopy); type: cell-based, mouse; conditions: 24 hours
Protocol: More specifically, RAW264.7 cells were incubated in 10% FBS containing α-MEM dissolved in a) 0.12% NaCl, b) 0.12% NaCl+85 ppm NaClO, or c) NIW. The cells were incubated in the presence or absence of E. coli LPS (1 μg/ml) for 24 hours. The cells were stained with Fluorescein-derivative ROS reacting reagent, 5-(and 6)-carboxy-2′,7′-dichlorodihydrofluorescein diacetate (#C400, Molecular Probes). The C400 only reacts with ROS and develops fluorescence emission at a wavelength range of 517-527 nm. The staining pattern was analyzed by 0.3 μm sequential optical sectioning at ×400 or ×1000 magnification with a Leica™ TCS/SP-2 laser scan confocal microscope.

[2] = tested on: RAW264.7 cells; assay: IL-1β production by peptidoglycan-stimulated RAW264.7 cells (ELISA); type: cell-based, mouse; conditions: peptidoglycan 5 μg/ml, 24 hours; 25% NIW, 75% DIW; DH-DIW; NaClO 100 ppm
Protocol: Next, the effects of NIW generated from 0.12% NaCl solution or water containing DH (dissolved hydrogen) on proinflammatory cytokine, IL-1β, production by the RAW264.7 cells in vitro was studied. Briefly, mouse RAW264.7 cells in 96-well tissue culture plates were stimulated with 5 μg/ml of peptidoglycan (Staphylococcus aureus origin, from Sigma) in NIW-based complete medium of α-MEM (25% NIW, 75% DIW) or DIW-based α-MEM (100% DIW). Hydrogen was dissolved in DIW for two days (DH-DIW) or NaClO (100 ppm) was additionally added to DIW. All media used in this assay were supplemented with FBS (10%). After 24 hours of incubation, culture supernatants were collected from the 96-well plates and diluted in an equal volume of PBS containing 0.05% Tween 20 detergent (PBST). A commercially available ELISA kit for IL-1β was employed to measure the concentration of IL-1β in the culture supernatants.

## OCl [sodium hypochlorite (NaClO) water, sodium hypochlorite]
[1]; E. coli LPS 1 μg/ml
  LPS-dependent intracellular ROS induction: LPS treatment induced intracellular ROS
[1]; no LPS
  intracellular ROS in the absence of LPS: did not show intracellular ROS
[2]
  IL-1β production: augmented the mitogenic activity of the peptidoglycan
